In ChEMBL document CHEMBL3414508, “A few atoms make the difference: synthetic, CD, NMR and computational studies on antiviral and antibacterial activities of glycopeptide antibiotic aglycon derivatives” (Eur J Med Chem, 2015):
In brackets after ≈: the same amount, converted by molar mass.

Assays:
Format in all cases: functional
Bacillus spizizenii = experiment: Antibacterial activity against Bacillus subtilis ATCC 6633 by broth microdilution method
Enterococcus faecalis [1] = experiment: Antibacterial activity against VanB+ Enterococcus faecalis ATCC 51299 by broth microdilution method
Staphylococcus aureus [2] = experiment: Antibacterial activity against methicillin-resistant Staphylococcus aureus ATCC 33591 by broth microdilution method
[3] = tested on: Staphylococcus epidermidis; experiment: Antibacterial activity against biofilm producing Staphylococcus epidermidis ATCC 35984 by broth microdilution method
[4] = tested on: Staphylococcus epidermidis; experiment: Antibacterial activity against Staphylococcus epidermidis expressing mecA by broth microdilution method
Enterococcus faecalis [5] = experiment: Antibacterial activity against Enterococcus faecalis ATCC 29212 by broth microdilution method
Staphylococcus aureus [6] = experiment: Antibacterial activity against methicillin-sensitive Staphylococcus aureus ATCC 29213 by broth microdilution method
Enterococcus faecalis [7] = experiment: Antibacterial activity against VanA+ Enterococcus faecalis 15376 by broth microdilution method

SMILES | MIC (Bacillus spizizenii) [µg/mL] | MIC (Enterococcus faecalis [1]) [µg/mL] | MIC (Staphylococcus aureus [2]) [µg/mL] | MIC [3] [µg/mL] | MIC [4] [µg/mL] | MIC (Enterococcus faecalis [5]) [µg/mL] | MIC (Staphylococcus aureus [6]) [µg/mL] | MIC (Enterococcus faecalis [7]) [µg/mL]
COC(=O)[C@H]1NC(=O)[C@H]2NC(=O)[C@H](NC(=O)[C@@H]3NC(=O)[C@H]4NC(=O)[C@@H](Cc5ccc(c(Cl)c5)Oc5cc3cc(c5O)Oc3ccc(cc3Cl)[C@H]2O[C@@H]2O[C@H](CO)[C@@H](O)[C@H](O)[C@H]2NC(C)=O)NC(=O)[C@H](N)c2ccc(O)c(c2)Oc2cc(O)cc4c2)c2ccc(O)c(c2)-c2c(O)cc(O)cc21 | 0.5 (≈ 0.353 µM) | 1 (≈ 0.706 µM) | 1 (≈ 0.706 µM) | 0.5 (≈ 0.353 µM) | 0.5 (≈ 0.353 µM) | 2 (≈ 1.41 µM) | 0.5 (≈ 0.353 µM) | 0.5 (≈ 0.353 µM)
COC(=O)[C@H]1NC(=O)[C@H]2NC(=O)[C@H](NC(=O)[C@@H]3NC(=O)[C@H]4NC(=O)[C@@H](Cc5ccc(c(Cl)c5)Oc5cc3cc(c5O)Oc3ccc(cc3Cl)[C@H]2O[C@@H]2O[C@H](CO)[C@@H](O)[C@H](O)[C@H]2NC(C)=O)NC(=O)[C@H](Nc2c(OC)c(=O)c2=O)c2ccc(O)c(c2)Oc2cc(O)cc4c2)c2ccc(O)c(c2)-c2c(O)cc(O)cc21 | 8 (≈ 5.24 µM) | 4 (≈ 2.62 µM) | 8 (≈ 5.24 µM) | 4 (≈ 2.62 µM) | 8 (≈ 5.24 µM) | 2 (≈ 1.31 µM) | 2 (≈ 1.31 µM) | 0.5 (≈ 0.328 µM)
COC(=O)[C@H]1NC(=O)[C@H]2NC(=O)[C@H](NC(=O)[C@@H]3NC(=O)[C@H]4NC(=O)[C@@H](Cc5ccc(c(Cl)c5)Oc5cc3cc(c5O)Oc3ccc(cc3Cl)[C@H]2O[C@@H]2O[C@H](CO)[C@@H](O)[C@H](O)[C@H]2NC(C)=O)NC(=O)[C@H](Nc2c(NCc3ccc(-c5ccccc5)cc3)c(=O)c2=O)c2ccc(O)c(c2)Oc2cc(O)cc4c2)c2ccc(O)c(c2)-c2c(O)cc(O)cc21 | 8 (≈ 4.77 µM) | 0.5 (≈ 0.298 µM) | 0.5 (≈ 0.298 µM) | 0.5 (≈ 0.298 µM) | 0.5 (≈ 0.298 µM) | 0.5 (≈ 0.298 µM) | 2 (≈ 1.19 µM) | 0.5 (≈ 0.298 µM)
COc1c(N[C@H]2C(=O)N[C@@H]3Cc4ccc(c(Cl)c4)Oc4cc5cc(c4O)Oc4ccc(cc4Cl)[C@@H](O)[C@@H]4NC(=O)[C@H](NC(=O)[C@@H]5NC(=O)[C@@H](NC3=O)c3cc(O)cc(c3)Oc3cc2ccc3O)c2ccc(O)c(c2)-c2c(O)cc(O)cc2[C@@H](C(=O)O)NC4=O)c(=O)c1=O | 16 (≈ 12.2 µM) | 8 (≈ 6.11 µM) | 2 (≈ 1.53 µM) | 2 (≈ 1.53 µM) | 2 (≈ 1.53 µM) | 4 (≈ 3.06 µM) | 1 (≈ 0.764 µM) | 2 (≈ 1.53 µM)
O=C1N[C@H]2C(=O)N[C@H]3C(=O)N[C@H](C(=O)N[C@H](C(=O)O)c4cc(O)cc(O)c4-c4cc3ccc4O)[C@H](O)c3ccc(c(Cl)c3)Oc3cc2cc(c3O)Oc2ccc(cc2Cl)C[C@H]2NC(=O)[C@H](Nc3c(NCc4ccc(-c5ccccc5)cc4)c(=O)c3=O)c3ccc(O)c(c3)Oc3cc(O)cc(c3)[C@@H]1NC2=O | 8 (≈ 5.48 µM) | 8 (≈ 5.48 µM) | 2 (≈ 1.37 µM) | 0.5 (≈ 0.342 µM) | 2 (≈ 1.37 µM) | 1 (≈ 0.685 µM) | 2 (≈ 1.37 µM) | 1 (≈ 0.685 µM)
COC(=O)[C@H]1NC(=O)[C@H]2NC(=O)[C@H](NC(=O)[C@@H]3NC(=O)[C@H]4NC(=O)[C@@H](Cc5ccc(c(Cl)c5)Oc5cc3cc(c5O)Oc3ccc(cc3Cl)[C@H]2O)NC(=O)[C@H](Nc2c(NCc3ccc(-c5ccccc5)cc3)c(=O)c2=O)c2ccc(O)c(c2)Oc2cc(O)cc4c2)c2ccc(O)c(c2)-c2c(O)cc(O)cc21 | 256 (≈ 174 µM) | 256 (≈ 174 µM) | 256 (≈ 174 µM) | 256 (≈ 174 µM) | 32 (≈ 21.7 µM) | 64 (≈ 43.4 µM) | 128 (≈ 86.8 µM) | 128 (≈ 86.8 µM)
COC(=O)[C@H]1NC(=O)[C@H]2NC(=O)[C@H](NC(=O)[C@@H]3NC(=O)[C@H]4NC(=O)[C@@H](Cc5ccc(cc5)Oc5cc3cc(c5O)Oc3ccc(cc3)[C@H]2O)NC(=O)[C@H](Nc2c(NCc3ccc(-c5ccccc5)cc3)c(=O)c2=O)c2ccc(O)c(c2)Oc2cc(O)cc4c2)c2ccc(O)c(c2)-c2c(O)cc(O)cc21 | 16 (≈ 11.4 µM) | 4 (≈ 2.85 µM) | 32 (≈ 22.8 µM) | 32 (≈ 22.8 µM) | 8 (≈ 5.69 µM) | 4 (≈ 2.85 µM) | 8 (≈ 5.69 µM) | 16 (≈ 11.4 µM)
Cc1c(O)cc2cc1Oc1cc(ccc1O)[C@@H](N)C(=O)N[C@H]1C(=O)N[C@@H]2C(=O)N[C@H]2C(=O)N[C@H]3C(=O)N[C@H](C(=O)N[C@@H](C(=O)O)c4cc(O)cc(O[C@H]5O[C@H](CO)[C@@H](O)[C@H](O)[C@@H]5O)c4-c4cc3ccc4O)[C@H](O[C@H]3C[C@@H](N)[C@@H](O)[C@H](C)O3)c3ccc(cc3)Oc3cc2cc(c3O[C@H]2O[C@@H](CO[C@H]3O[C@H](C)[C@@H](O)[C@H](O)[C@@H]3O)[C@H](O)[C@@H](O)[C@@H]2O[C@H]2O[C@H](CO)[C@@H](O)[C@H](O)[C@@H]2O[C@H]2O[C@H](CO)[C@@H](O)[C@@H]2O)Oc2ccc(cc2)[C@H]1O [RISTOCETIN] | 16 (≈ 7.79 µM) | 256 (≈ 125 µM) | 32 (≈ 15.6 µM) | 2 (≈ 0.974 µM) | 128 (≈ 62.3 µM) | 4 (≈ 1.95 µM) | 128 (≈ 62.3 µM) | 16 (≈ 7.79 µM)
